Here are results for 4 molecules from US8980906B2, “Pyridonemorphinan analogs and biological activity on opioid receptors” (Purdue Pharma L.P., priority 2012, dated 2015).

Assay [1] concerns the target T1, κ-opioid receptor (Homo sapiens (Human), UniProt P41145). As to the kind of experiment: κ-opioid receptor [35S]GTPγS functional assay, HEK-293 or CHO cells. The format is biochemical. The settings on record: for Emax: relative to U69,593, HEK-293 or CHO cells.
Assay [2] deals with T2, μ-opioid receptor (Homo sapiens (Human), UniProt P35372). Kind of assay: μ-opioid receptor radioligand dose-displacement binding assay ([3H]-diprenorphine). The following applies: binding affinity, [3H]-diprenorphine displacement; read-out: Ki (nM) Opioid Receptor μ. The protocol:
μ-Opioid Receptor Binding Assay Procedures: Radioligand dose-displacement binding assays for μ-opioid receptors used 0.3 nM [^3H]-diprenorphine (Perkin Elmer, Shelton, Conn.), with […] membrane protein/well in a final volume of 500 μl binding buffer (10 mM MgCl2, 1 mM EDTA, 5% DMSO, 50 mM HEPES, pH 7.4). Reactions were carried out in the absence or presence of increasing concentrations of unlabeled naloxone. All reactions were conducted in 96-deep well polypropylene plates for 2 hours at room temperature. Binding reactions were terminated by rapid filtration onto 96-well Unifilter GF/C filter plates (Perkin Elmer, Shelton, Conn.), presoaked in 0.5% polyethylenimine using a 96-well tissue harvester (Perkin Elmer, Shelton, Conn.) followed by performing three filtration washes with 500 μl of ice-cold binding buffer. Filter plates were subsequently dried at 50° C. for 2-3 hours. BetaScint scintillation cocktail (Perkin Elmer, Shelton, Conn.) was added (50 μl/well), and plates were counted using a Packard Top-Count for 1 min/well. The data were analyzed using the one-site competition curve fitting functions in GraphPad PRISM™ v. 3.0 or higher (San Diego, Calif.), or an in-house function for one-site competition curve-fitting.

For assay [3], the target named is T2, μ-opioid receptor. As to the kind of experiment: μ-opioid receptor [35S]GTPγS functional assay, HEK-293 or CHO cells. The format is biochemical. The following applies: for Emax: relative to DAMGO, HEK-293 or CHO cells.
The target of the next assay is ORL-1 receptor (Homo sapiens (Human), UniProt P41146). Kind of assay: ORL-1 receptor radioligand binding assay ([3H]-nociceptin). The following applies: binding affinity, [3H]-nociceptin displacement. The protocol:
ORL-1 Receptor Binding Assay Procedure: Membranes from recombinant HEK-293 cells expressing the human opioid receptor-like receptor (ORL-1) (Perkin Elmer, Shelton, Conn.) were prepared by lysing cells in ice-cold hypotonic buffer (2.5 mM MgCl2, 50 mM HEPES, pH 7.4) (10 ml/10 cm dish) followed by homogenization with a tissue grinder/Teflon pestle. Membranes were collected by centrifugation at 30,000×g for […] at 4° C. and pellets resuspended in hypotonic buffer to a final concentration of 1-3 mg/ml. Protein concentrations were determined using the BioRad protein assay reagent with bovine serum albumen as standard. Aliquots of the ORL-1 receptor membranes were stored at −80° C.
Radioligand binding assays (screening and dose-displacement) used 0.1 nM [^3H]-nociceptin (Perkin Elmer, Shelton, Conn.; 87.7 Ci/mmole) with 12 μg membrane protein in a final volume of 500 μl binding buffer (10 mM MgCl2, 1 mM EDTA, 5% DMSO, 50 mM HEPES, pH 7.4). Non-specific binding was determined in the presence of […] unlabeled nociceptin (American Peptide Company). All reactions were performed in 96-deep well polypropylene plates for 1 h at room temperature. Binding reactions were terminated by rapid filtration onto 96-well Unifilter GF/C filter plates (Perkin Elmer, Shelton, Conn.) presoaked in 0.5% polyethylenimine (Sigma). Harvesting was performed using a 96-well tissue harvester (Perkin Elmer, Shelton, Conn.) followed by three filtration washes with 500 μl ice-cold binding buffer. Filter plates were subsequently dried at 50° C. for 2-3 hours. Fifty μl/well scintillation cocktail (Perkin Elmer, Shelton, Conn.) was added and plates were counted in a Packard Top-Count for 1 min/well. The data from screening and dose-displacement experiments were analyzed using Microsoft Excel and the curve fitting functions in GraphPad PRISM™, v. 3.0 or higher, respectively, or an in-house function for one-site competition curve-fitting.

For assay [4], the target named is T1, κ-opioid receptor. As to the kind of experiment: κ-opioid receptor radioligand dose-displacement binding assay ([3H]-U69,593). The settings on record: binding affinity, [3H]-U69,593 displacement. The protocol:
κ-Opioid Receptor Binding Assay Procedures: Membranes from HEK-293 cells, CHO or U-2 OS cells expressing the recombinant human kappa opioid receptor (κ) were prepared by lysing cells in ice cold hypotonic buffer (2.5 mM MgCl2, 50 mM HEPES, pH 7.4) (10 mL/10 cm dish) followed by homogenization with a tissue grinder/Teflon pestle. Membranes were collected by centrifugation at 30,000×g for 15 min at 4° C. and pellets were resuspended in hypotonic buffer to a final concentration of 1-3 mg/mL. Protein concentrations were determined using the BioRad protein assay reagent with bovine serum albumen as standard, Aliquots of κ receptor membranes were stored at […].
Radioligand dose displacement assays used 0.4 nM [^3H]-U69,593 (GE Healthcare, Piscataway, N.J.; 40 Ci/mmole) with 15 μg membrane protein (recombinant κ opioid receptor expressed in HEK 293 cells; in-house prep) in a final volume of 200 μl binding buffer (5% DMSO, 50 mM Trizma base, pH 7.4). Non-specific binding was determined in the presence of 10 μM unlabeled naloxone or U69,593. All reactions were performed in 96-well polypropylene plates for 1 hour at a temperature of about 25° C. Binding reactions were terminated by rapid filtration onto 96-well Unifilter GF/C filter plates (Perkin Elmer, Shelton, Conn.) presoaked in 0.5% polyethylenimine (Sigma). Harvesting was performed using a 96-well tissue harvester (Perkin Elmer, Shelton, Conn.) followed by five filtration washes with 200 μl ice-cold binding buffer. Filter plates were subsequently dried at 50° C. for 1-2 hours. Fifty μl/well scintillation cocktail (Perkin Elmer, Shelton, Conn.) was added and plates were counted in a Packard Top-Count for 1 min/well.

A further assay deals with δ-opioid receptor (Homo sapiens (Human), UniProt P41143). As to the kind of experiment: δ-opioid receptor radioligand dose-displacement binding assay ([3H]-Naltrindole). The following applies: binding affinity, [3H]-Naltrindole displacement. On the procedure: δ-Opioid Receptor Binding Assay Procedures: δ-Opioid Receptor Binding Assay Procedures were conducted as follows. Radioligand dose-displacement assays used 0.2 nM [^3H]-Naltrindole (Perkin Elmer, Shelton, Conn.; 33.0 Ci/mmole) with 5 μg membrane protein (Perkin Elmer, Shelton, Conn.) in a final volume of 500 μl binding buffer (5 mM MgCl2, 5% DMSO, 50 mM Trizma base, pH 7.4). Non-specific binding was determined in the presence of 25 μM unlabeled naloxone. All reactions were performed in 96-deep well polypropylene plates for 1 hour at a temperature of about 25° C. Binding reactions were terminated by rapid filtration onto 96-well Unifilter GF/C filter plates (Perkin Elmer, Shelton, Conn.) presoaked in 0.5% polyethylenimine (Sigma). Harvesting was performed using a 96-well tissue harvester (Perkin Elmer, Shelton, Conn.) followed by five filtration washes with 500 μl ice-cold binding buffer. Filter plates were subsequently dried at 50° C. for 1-2 hours. Fifty μl/well scintillation cocktail (Perkin Elmer, Shelton, Conn.) was added and plates were counted in a Packard Top-Count for 1 min/well.

SMILES strings stand for the structures.

Sequence of δ-opioid receptor (P41143 whole entry, looked up): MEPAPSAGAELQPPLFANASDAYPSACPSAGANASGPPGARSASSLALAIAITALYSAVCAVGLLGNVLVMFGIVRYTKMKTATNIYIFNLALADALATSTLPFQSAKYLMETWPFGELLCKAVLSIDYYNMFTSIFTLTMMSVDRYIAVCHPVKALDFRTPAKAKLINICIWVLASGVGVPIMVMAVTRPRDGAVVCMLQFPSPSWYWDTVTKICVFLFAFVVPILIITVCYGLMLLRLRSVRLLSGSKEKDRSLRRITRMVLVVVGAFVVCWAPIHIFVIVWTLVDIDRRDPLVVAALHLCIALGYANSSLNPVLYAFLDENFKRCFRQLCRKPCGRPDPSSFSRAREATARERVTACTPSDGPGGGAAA

Regarding `C[C@H](NC(=O)c1cc2c([nH]c1=O)C[C@]13CCN(CC4CC4)[C@H](Cc4ccc(O)cc41)[C@@H]3C2)C(N)=O` [Compound 22, (6R,6aR,12aS)—N—((S)-1-amino-1-oxopropan-2-yl)-15-(cyclopropylmethyl)-2-hydroxy-10-oxo-6,6a,7,10,11,12-hexahydro-5H-6,12a-(epiminoethano)naphtho[2,1-g]quinoline-9-carboxamide], the results for the half-maximal effective concentration (EC50) at κ-opioid receptor [1] and on μ-opioid receptor [3] were 9.89 ± 2.4 nM and 4.22 ± 1 nM, respectively. Besides, the results for the Emax on κ-opioid receptor [1] and at μ-opioid receptor [3] were 36.7 ± 2.73% and 30 ± 3.21%, respectively. Besides, the inhibitory constant (Ki) at μ-opioid receptor [2] is 0.56 ± 0.11 nM; on ORL-1 receptor it was 1.2 ± 0.21 nM.

In the case of `NC(=O)CNC(=O)c1cc2c([nH]c1=O)C[C@]13CCN(CC4CC4)[C@H](Cc4ccc(O)cc41)[C@@H]3C2` [Compound 21, (6R,6aR,12aS)—N-(2-amino-2-oxoethyl)-15-(cyclopropylmethyl)-2-hydroxy-10-oxo-6,6a,7,10,11,12-hexahydro-5H-6,12a-(epiminoethano)naphtho[2,1-g]quinoline-9-carboxamide], the concentration for a half-maximal effect (EC50) at κ-opioid receptor [1] stood at 4.19 ± 0.79 nM; at μ-opioid receptor [3], 1.73 ± 0.41 nM. In addition, the Emax at κ-opioid receptor [1] is 41 ± 5.29%; on μ-opioid receptor [3], 23.7 ± 2.19%. In addition, the inhibition constant (Ki) at μ-opioid receptor [2] amounted to 0.59 ± 0.15 nM; at ORL-1 receptor, 2.04 ± 0.49 nM.

As for `COC(=O)c1cc2c([nH]c1=O)C[C@]13CCN(CC4CC4)[C@H](Cc4ccc(OC)cc41)[C@@H]3C2` [Compound 3, (6R,6aR,12aS)-methyl 15-(cyclopropylmethyl)-2-methoxy-10-oxo-6,6a,7,10,11,12-hexahydro-5H-6,12a-(epiminoethano)naphtho[2,1-g]quinoline-9-carboxylate], the EC50 stood at 39.1 ± 2.6 nM at κ-opioid receptor [1] and 34.9 ± 6.84 nM at μ-opioid receptor [3]. The Emax on κ-opioid receptor [1] was found to be 52.3 ± 1.76%; at μ-opioid receptor [3] it was 15.7 ± 3.48%. For the same molecule, the Ki at μ-opioid receptor [2] amounted to 449 ± 171 nM; at κ-opioid receptor [4], 3.85 ± 1.09 nM; at δ-opioid receptor, 18.9 ± 7.84 nM.

`CC(C)C[C@H](NC(=O)c1cc2c([nH]c1=O)C[C@]13CCN(CC4CC4)[C@H](Cc4ccc(O)cc41)[C@@H]3C2)C(N)=O` [Compound 24, (6R,6aR,12aS)—N—((S)-1-amino-4-methyl-1-oxopentan-2-yl)-15-(cyclopropylmethyl)-2-hydroxy-10-oxo-6,6a,7,10,11,12-hexahydro-5H-6,12a-(epiminoethano)naphtho[2,1-g]quinoline-9-carboxamide]: the figures for the EC50 on κ-opioid receptor [1] and at μ-opioid receptor [3] were 2.54 ± 0.55 nM and 5.2 ± 1.35 nM, respectively. Besides, the Emax at κ-opioid receptor [1] came out at 23 ± 2.04%; on μ-opioid receptor [3], 37 ± 7.02%. Moreover, the values for the Ki on μ-opioid receptor [2] and at κ-opioid receptor [4] were 3.95 ± 1.84 nM and 0.96 ± 0.1 nM, respectively.
